Values after ≈ are worked out from the molar mass of the structure shown.
Experiments:
Type in all cases: functional
[1] = tested on: Salmonella enterica; assay: Antibacterial activity against Salmonella choleraesuis infected in mouse assessed as protection from infection at 25 mg/kg, po administered 0.5 hrs, 4 and 24 hrs post inoculation
[2] = tested on: Salmonella enterica; assay: Antibacterial activity against Salmonella choleraesuis infected in mouse assessed as protection from infection at 25 mg/kg, sc administered 0.5 hrs, 4 and 24 hrs post inoculation; conditions: route subcutaneous
[3] = tested on: Salmonella enterica; assay: Antibacterial activity against Salmonella choleraesuis infected in po dosed mouse assessed as protection from infection compound administered 0.5 hrs, 4 and 24 hrs post inoculation; conditions: read-out: PD50
[4] = tested on: Salmonella enterica; assay: Antibacterial activity against Salmonella choleraesuis infected in sc dosed mouse assessed as protection from infection compound administered 0.5 hrs, 4 and 24 hrs post inoculation; conditions: read-out: PD50
[5] = tested on: Escherichia coli; assay: Antibacterial activity against Escherichia coli infected in po dosed mouse assessed as protection from infection compound administered 0.5 hrs, 4 and 24 hrs post inoculation; conditions: read-out: PD50
[6] = tested on: Escherichia coli; assay: Antibacterial activity against Escherichia coli infected in sc dosed mouse assessed as protection from infection compound administered 0.5 hrs, 4 and 24 hrs post inoculation; conditions: read-out: PD50
[7] = tested on: Pasteurella multocida; assay: Antibacterial activity against Pasteurella multocida infected in po dosed mouse assessed as protection from infection compound administered 0.5 hrs, 4 and 24 hrs post inoculation; conditions: read-out: PD50
[8] = tested on: Pasteurella multocida; assay: Antibacterial activity against Pasteurella multocida infected in sc dosed mouse assessed as protection from infection compound administered 0.5 hrs, 4 and 24 hrs post inoculation; conditions: read-out: PD50
[9] = tested on: Escherichia coli; assay: Antibacterial activity against Escherichia coli
[10] = tested on: Salmonella enterica; assay: Antibacterial activity against Salmonella choleraesuis
[11] = tested on: Pasteurella multocida; assay: Antibacterial activity against Pasteurella multocida
[12] = tested on: Streptococcus pyogenes; assay: Antibacterial activity against Streptococcus pyogenes
[13] = tested on: Brachyspira hyodysenteriae; assay: Antibacterial activity against Treponema hyodysenteriae after 72 hrs by dilution method

Row | Compound | Activity [1] [%] | Activity [2] [%] | ED50 [3] [mg/kg] | ED50 [4] [mg/kg] | ED50 [5] [mg/kg] | ED50 [6] [mg/kg] | ED50 [7] [mg/kg] | ED50 [8] [mg/kg] | MIC [9] [µg/mL] | MIC [10] [µg/mL] | MIC [11] [µg/mL] | MIC [12] [µg/mL] | MIC [13] [µg/mL]
1 | CC1(O)OCc2c1[n+]([O-])c1ccccc1[n+]2[O-] (configuration not stated) | 100 | 100 | 6 | 4.4 | 14 | 13 | 11 | 8.1 | – | – | – | – | –
2 | COC1(C)OCc2c1[n+]([O-])c1ccccc1[n+]2[O-] (configuration not stated) | 70 | 70 | – | – | – | – | – | – | – | – | – | – | –
3 | CCOC1(C)OCc2c1[n+]([O-])c1ccccc1[n+]2[O-] (configuration not stated) | 70 | 50 | – | – | – | – | – | – | – | – | – | – | –
4 | CC1(OCc2ccccc2)OCc2c1[n+]([O-])c1ccccc1[n+]2[O-] (configuration not stated) | 40 | 60 | – | – | – | – | – | – | – | – | – | – | –
5 | COC(=O)N/N=C/c1c[n+]([O-])c2ccccc2[n+]1[O-] [CARBADOX] | 80 | 40 | 20 | 44 | 8.2 | 7 | 16 | 18 | 0.39 (≈ 1.49 µM) | 0.19 (≈ 0.725 µM) | 0.78 (≈ 2.97 µM) | 0.19 (≈ 0.725 µM) | 0.09 (≈ 0.343 µM)

From ChEMBL document CHEMBL3244049, “Synthesis and antibacterial activity of 1-hydroxy-1-methyl-1,3-dihydrofuro[3,4-b]quinoxaline 4,9-dioxide and related compounds” (1979)
